Source: patent publication US20080021002A1, “VITAMIN D COMPOUNDS USED TO STABILIZE KIDNEY TRANSPLANTS” (priority 2000, published 2008)

Columns and labels:
[1] = test system: kidney or kidney-pancreas transplant recipients; conditions: human, in vivo
Description: Methodology-retrospective analysis: The University of Wisconsin transplant database was screened to identify any kidney and/or kidney-pancreas transplant recipient who received 1,25-dihydroxyvitamin D3 (calcitriol)peri-post-transplant. Clinical and demographic variables were abstracted from the database. Those patients with adequate follow-up data were included in the analysis (≧1year follow-up data following the initiation of calcitriol). Demographic variables included race, age, and nay history of parathyroidectomy as these patients would likely be receiving calcitriol at time of transplantation. The effect of calcitriol treatment on renal function was analyzed using general linear mixed modeling of the change in slope of renal function prior to and following the start of calcitriol therapy. […] Adverse events and hypercalcemia were noted by identifiers in the database and by serum calcium levels as recorded in the database. Hypercalcemia was defined as a serum calcium >10.5 mg/dl.
The mean serum calcium in Group 1 and Group 2 patients was <10 mg/dl (9.6±0.9 mg/dl). There were no episodes of sustained hypercalcemia (>2 serial hypercalcemia values noted) or hypercalcemia events requiring hospitalization. There were no episodes of substained hematuria that could be directly attributable to hypercalcemia.

MMP 2 protein = experiment: Antigen-capture ELISA of renal graft lysates, total MMP 2 protein; assay type: in vivo, rat; conditions: vs untreated allogeneic group (FIG. 5B); 1,25-(OH)2D3: syngeneic and allogeneic groups; CSA: allogeneic
Experimental: (§1) FIG. 5 is a set of graphs showing that 1,25-(OH)2D3 Treatment Alters MMP and TIMP Expression . […] S26 was used as the housekeeping gene. […] Fold changes are expressed relative to the allogeneic untreated control.
(§2) Enzyme Linked Immunoabsorbant Assay (ELISA): TGFβ-1 and MMP 2 levels were quantified by antigen-capture ELISA. […] After blocking with 1× block buffer at 37° C. for 35 minutes 25 ul of cell lysate (diluted 1:10 in the lysis buffer) was added to the wells. A standard curve was generated by performing two fold serial dilutions of the standard active TGFβ-1 antigen (diluted 15.6 pg/ml to 1000 pg/ml, Promega, Inc.) or MMP2 (0.5 ng/ml to 100 ng/ml, R and D Systems). The plate was incubated for 2 hours at RT with shaking and then washed extensively with wash buffer (0.05% Tween 20 in PBS) followed by PBS. The TGFβ-1 ELISA was then developed according to the manufacturer's instruction. For the MMP2 ELISA, biotinylated detection antibody, clone 101721 (25 μL/well at 1.4 ug/ml R and D Systems) was added and incubated at RT (1hour, with shaking). The antibody was biotinylated using a Mini-Biotin-XX Protein Labeling Kit (F-6347) according to manufacturer's instruction (Molecular Probes, Eugene Oreg.). […] Absorbance was measured at 450 nm on a Vmax Kinetic microplate reader (Molecular Devices, Sunnyvale Calif.). […]

bioactive TGFβ-1 = experiment: Antigen-capture ELISA of renal graft lysates, bioactive TGFβ-1; assay type: in vivo, rat; conditions: treated recipients vs untreated allogeneic control grafts
Experimental: as §2, with “Oreg.). Following further washing, avidin-peroxidase conjugate was added (25 ul/well at 1:5000) for 30 minutes at RT. A color reaction was developed by the addition of 25 ul of the TMB (3, 3′, 5, 5′-tetramethylbenzidine)/[…] substrate solution, (KPL, Gaithersberg, Md.).” for “Oreg.).”

MMP 9 mRNA = experiment: Semi-quantitative RT-PCR of renal grafts, MMP 9 mRNA; assay type: in vivo, rat; conditions: all groups vs syngeneic untreated controls, regardless of treatment
Experimental: FIG. 5 is a set of graphs showing that 1,25-(OH)2D3 Treatment Alters MMP and TIMP Expression . […] S26 was used as the housekeeping gene. […]
(§3) Semi-quantitative Reverse transcription polymerace chain reaction (RT-PCR): Following graft harvest a […] containing both cortex and medulla was snap frozen in liquid nitrogen. Semi-quantitative RT-PCR was performed as described. Little et al. Transplant Int. 12:393-401, 1999. Briefly, samples were homogenized then total RNA extracted with RNAzol B (Tel Test, Inc., Friendswood, Tex.) and reversed transcribed to cDNA according to manufacturer=s instructions (Superscript, Gibco BRL). PCR was performed over the linear range of amplification for both the gene of interest, e.g. TGFβ-1, and the ribosomal protein S26 as a control housekeeping gene. PCR conditions were chosen such that both products were amplified with similar efficiency. The following cycle parameters were employed: denaturing, 94° C. for 60 seconds; annealing, 61° C. for 60 seconds; and extension, 72° C. for 60 seconds. The amount of product was quantified using a phosphoimager (Storm 80) following gel electrophoresis and Vista green detection.

TGFβ-1 mRNA = experiment: Semi-quantitative RT-PCR of renal grafts, TGFβ-1 mRNA; assay type: in vivo, rat; conditions: treated recipients vs untreated allogeneic control grafts
Experimental: as §3

Smad 6 mRNA = experiment: Semi-quantitative RT-PCR of renal grafts, Smad 6 mRNA; assay type: in vivo, rat
Description: FIG. 3 is a bar graph disclosing that 1,25-(OH)2D3 treated increases Smad 6 mRNA expression. Semi-quantitative RT-PCR was used to determine Smad mRNA express. PCR products were quantified on a phosphoimager and the level of Smad expression compared to that of a ribosomal housekeeping gene, S26. Results are expressed as the ratio to S26.
as §3

TIMP 1 mRNA = experiment: Semi-quantitative RT-PCR of renal grafts, TIMP 1 mRNA; assay type: in vivo, rat; conditions: all groups vs untreated allograft recipients, regardless of treatment
Experimental: as §1, §3

Question: `C=C1/C(=C\C=C2/CCC[C@]3(C)[C@@H]([C@H](C)CCCC(C)(C)O)CC[C@@H]23)C[C@@H](O)C[C@@H]1O` [calcitriol, 1,25-dihydroxyvitamin D3] was tested. Which “Episodes of sustained hematuria attributable to hypercalcemia” value [1] did it give?
Answer: no episodes

Question: What about the “Total MMP 2 protein expression” value (MMP 2 protein) of the same molecule?
Answer: increased

Question: What about the “Bioactive TGFβ-1 protein levels” value (bioactive TGFβ-1) of the same molecule?
Answer: no significant difference

Question: And the “MMP 9 mRNA” value (MMP 9 mRNA)?
Answer: increased

Question: And the “TGFβ-1 mRNA levels” value (TGFβ-1 mRNA)?
Answer: no significant difference

Question: What about the “Smad 6 mRNA expression” value (Smad 6 mRNA; allogeneic grafts, vs untreated allogeneic grafts (1,25-(OH)2D3 p=0.02)) of the same molecule?
Answer: significantly increased

Question: What about the “Smad 6 mRNA expression” value (Smad 6 mRNA; syngeneic grafts, vs untreated allogeneic grafts, p=0.001) of the same molecule?
Answer: significantly increased

Question: And the “TIMP 1 mRNA expression” value (TIMP 1 mRNA)?
Answer: decreased
